From paper PMC7093242 (Cell chemical biology, 2020)

Target: Yck2-HA (HA-tagged Yck2) (Candida albicans, UniProt A0A1D8PKB4)
Assay: ADP-Glo kinase assay on immunoprecipitated Yck2-HA beads
Type: biochemical
Conditions: 25 μM ATP, 0.2 mg/mL casein kinase I peptide substrate, pH 7.5, 30°C; little effect

**Q.** Which concentration-dependent inhibition does the source give for `CN[C@@H]1C[C@H]2O[C@@](C)([C@@H]1OC)n1c3ccccc3c3c4c(c5c6ccccc6n2c5c31)C(=O)NC4` [STS, staurosporine] here?
**A.** the promiscuous PKI, staurosporine had little effect on Yck2 activity
